In patent publication US11873320B2 (REATA PHARMACEUTICALS HOLDINGS, LLC, priority 2013, dated 2024):
Like-named read-outs stand apart in the source and are kept apart here.

Legend:
[1] = tested on: IFNγ-induced NO production; assay: IFNγ-induced NO production in RAW264.7 macrophages (Griess reagent); format: cell-based; conditions: Mus musculus
Procedure: (§1) Inhibition of IFNγ-induced NO production by AIMs is Nrf2-dependent (Dinkova-Kostova, 2005). […] Nitrite (NO2^−) levels in the media were measured as a surrogate for nitric oxide using the Griess reagent assay. Cell viability was assessed using the WST-1 assay. […] 63170, 63171, 63179, and 63189 are compounds of the formulas: […]

[2] = tested on: Nrf2 protein expression in SK-N-SH cells; assay: in-cell western NQO1 assay, SK-N-SH cells; format: cell-based; conditions: Homo sapiens, 72 h, 3 days incubation, read-out: EC50 for induction of Nrf2 protein expression in SK-N-SH cells
Procedure: HMOX1 protein was not detected in untreated or RTA 408-treated SH-SY5Y cells. […] The same amount of 63170 (54.6 nM) was required.
The EC50 was measured using an in-cell western NQO1 assay where the cells were incubated with the compound under evaluation for 3 days. After incubation with the compound of interest, the cells were reacted with mouse NQO1 antibody and then the next day the cells were reacted with IRDye-800CW-anti-mouse IgG antibody. The target signals were visualized and then analyzed.

[3] = tested on: glutathione levels; assay: induction of glutathione levels, RAW264.7 mouse model; format: cell-based
Source text: Glutathione and NADPH are critical factors required for the maintenance of cellular redox capacity. […] Data shown are representative of two independent experiments.

[4] = TGA-MS of solid forms; format: physicochemical; conditions: for hygroscopicity: indicated by TGA-MS; for mass loss in TGA-MS between 25 and 200° C.: traces of H2O
Procedure: The TGA was run with TA instruments, data were collected on a thermal balance (Q-5000, TA Instruments, New Castle, Del.) equipped with a data analyzer (Universal Analysis 2000, version 4.5A, TA Instruments, New Castle, Del.). During experiments, the furnace was purged with nitrogen at 60 mL/minute, while the balance chamber was purged at 40 mL/minute. Temperature of the TGA furnace was calibrated using curie points of […] and nickel. Sample size ranged from 2 to 20 mg, and a heating rate of 10° C./minute was used.
For TGA-MS, the thermogravimetric analysis part was the same as above. The mass of evolved gas was analyzed with […] GSD 301 T3 ThermoStar ([…] Vacuum, Asslar, Germany). The instrument was operated and data evaluated with Software Quadstar 32-bit (V7.01, Inficon, LI-9496 Balzers, Liechtenstein).

[5] = tested on: TNFα-induced NF-κB activation; assay: TNFα-induced NF-κB luciferase reporter, HeLa/NF-κB-Luc cells; format: cell-based; conditions: Homo sapiens, 1 h pretreatment, TNFα 10 ng/mL 5 h
Source text: NF-κB is a transcription factor that plays a central role in the regulation of many immune and inflammatory responses.

[6] = tested on: RAW264.7 cells; assay: WST-1 cell viability, RAW264.7; format: cell-based; conditions: Mus musculus
Procedure: as §1

[7] = 2 h pre-treatment, 20 ng/mL IFNγ 24 h, read-out: IC50, suppression of IFNγ-induced NO production

Structure (SMILES)	IC50 [1, 7] [nM]	EC50 [2] [nM]	EC50 [3] [nM]	also measured
CC1(C)CC[C@]2(NC(=O)C(F)(F)F)CC[C@]3(C)[C@H](C(=O)C=C4[C@@]5(C)C=C(C#N)C(=O)C(C)(C)[C@@H]5CC[C@]43C)[C@@H]2C1 [compound 63171]	6.9 ± 0.6	122	23.2	
CC1(C)CC[C@]2(NC(=O)C(C)(F)F)CC[C@]3(C)[C@H](C(=O)C=C4[C@@]5(C)C=C(C#N)C(=O)C(C)(C)[C@@H]5CC[C@]43C)[C@@H]2C1 [Form B]				hygroscopicity [4]: very slightly hygroscopic; mass loss in TGA-MS between 25 and 200° C. [4]: ~0.2 wt.-%
CC(=O)N[C@]12CCC(C)(C)C[C@H]1[C@H]1C(=O)C=C3[C@@]4(C)C=C(C#N)C(=O)C(C)(C)[C@@H]4CC[C@@]3(C)[C@]1(C)CC2 [compound 63170]	8 ± 3	54.6	12.1	IC50 [5]: 953 nM
CC1(C)CC[C@]2(NC(=O)CC(F)(F)F)CC[C@]3(C)[C@H](C(=O)C=C4[C@@]5(C)C=C(C#N)C(=O)C(C)(C)[C@@H]5CC[C@]43C)[C@@H]2C1 [compound 63179]		126		IC50 ([1]; unit given as nm, read-out: IC50, suppression of IFNγ-induced NO production): 11 ± 2 nM
CC1(C)CC[C@]2(NC(=O)C(C)(F)F)CC[C@]3(C)[C@H](C(=O)C=C4[C@@]5(C)C=C(C#N)C(=O)C(C)(C)[C@@H]5CC[C@]43C)[C@@H]2C1 [Form A]				hygroscopicity [4]: slightly hygroscopic; mass loss in TGA-MS between 25 and 200° C. [4]: ~0.5 wt.-%
CCC(=O)N[C@]12CCC(C)(C)C[C@H]1[C@H]1C(=O)C=C3[C@@]4(C)C=C(C#N)C(=O)C(C)(C)[C@@H]4CC[C@@]3(C)[C@]1(C)CC2 [compound 63189]	7 ± 2	102	16	IC50 [5]: 854 nM
CC1(C)CC[C@]2(CO)CC[C@]3(C)[C@H](C(=O)C=C4[C@@]5(C)C=C(C#N)C(=O)C(C)(C)[C@@H]5CC[C@]43C)[C@@H]2C1 [compound 63355, reference compound]				IC50 ([1]; Table 15, read-out: NO IC50 (nM), RAW264.7): 0.63 ± 0.06 nM; IC50 [6]: 150 nM
